Measurements as given in patent US11591574B2, “Optical-quality surface that imparts spatial control of macrophage fusion” (ARIZONA BOARD OF REGENTS ON BEHALF OF ARIZONA STATE …, priority 2016, dated 2023).
Entries after “also recorded” stand apart in the source; their conditions may differ.

Test system: macrophages
Assay: IL-4-induced macrophage fusion (fusion index)
Format: cell-based, mouse
Description: To test the rates of cell fusion on the above described glass slides with a pattern surface, monocytes or macrophages are collected according to standard protocols and applied to hydrocarbon chain surface. After 30 minutes, the cultures are washed 3 times rapidly with phosphate-buffered saline to remove unbound cells, and complete cell culture medium (DMEM:F12, 10% FBS, 1% antibiotics) is applied to the culture for about 2 hours. After about 2 hours, about 10 ng/ml of interleukin-4 is applied to the culture to induce fusion and the culture is incubated until the respective time point.
Macrophages were isolated from the mouse peritoneum 72 hr after injection of a sterile 4% solution of Brewer's thioglycollate (Sigma Aldrich, St. Louis, Mo.). […] Immediately following euthanasia, 5 mL of an ice-cold solution of phosphate-buffered saline (PBS, pH 7.4) supplemented with 5 mM EDTA was injected aseptically into the peritoneum, the lavage containing cells was collected, and the cells were counted with a Neubauer hemocytometer. […]
Peritoneal lavage cells were applied to various surfaces at a concentration of 2,000 cells/mm2 and incubated in 5% CO2 at 37° C. for 30 min. […] The extent of MGCs formation was evaluated by determining the fusion index. […] Three to 5 bright field images collected at 20× objective magnification were analyzed per specimen.

For CCCCCCCC/C=C\CCCCCCCC(N)=O [oleamide], the “increase in fusion versus clean glass” value (adsorption onto clean glass) was ~4 fold and the “level of macrophage fusion” value (hydrocarbon deposited on optical-quality glass, IL-4 induced) was “high-levels; also recorded: high levels”.
